Results published in ChEMBL document CHEMBL3045652, “Biorational glycol diesters as dietary toxins versus bioefficacy of sucrose octanoate against lepidopteran larvae” (Ind Crops Prod, 2012).
Converted amounts (≈) assume the structure as drawn. The source made the active and inactive calls. The calls are words filed in the database; no cut-off is given here.

Tests used:
[1] = system: Helicoverpa armigera; experiment: Antifeedant activity against third-instar larval stage of Helicoverpa armigera fed with artificial diet containing compound assessed as relative growth rate at 9.82 mg/ml after 3 days (reference value: 0.97 +/- 0.13 mg/mg/day); assay type: functional
[2] = system: Helicoverpa armigera; experiment: Antifeedant activity against third-instar larval stage of Helicoverpa armigera fed with artificial diet containing compound assessed as relative consumption rate at 9.82 mg/ml after 3 days (reference value: 1.88 +/- 0.14 mg/mg/day); assay type: functional
[3] = system: Helicoverpa armigera; experiment: Antifeedant activity against third-instar larval stage of Helicoverpa armigera fed with artificial diet containing compound assessed as efficiency index of ingested food at 9.82 mg/ml after 3 days (reference value: 52%); assay type: functional
[4] = system: Helicoverpa armigera; experiment: Insecticidal activity against second-instar larval stage of Helicoverpa armigera fed with artificial diet containing compound assessed as growth inhibition after 7 days; assay type: functional, organism-based; conditions: for EC50: 168 h
[5] = system: Spodoptera litura; experiment: Antifeedant activity against third-instar larval stage of Spodoptera litura fed with artificial diet containing compound assessed as relative consumption rate at 8.32 mg/ml after 3 days (reference value: 2.13 +/- 0.18 mg/mg/day); assay type: functional
[6] = system: Spodoptera litura; experiment: Insecticidal activity against second-instar larval stage of Spodoptera litura fed with artificial diet containing compound assessed as growth inhibition after 7 days; assay type: functional, organism-based; conditions: for EC50: 168 h
[7] = system: Helicoverpa armigera; experiment: Insecticidal activity against second-instar larval stage of Helicoverpa armigera fed with artificial diet containing compound assessed as mortality after 7 days; assay type: functional; conditions: 168 h
[8] = system: Spodoptera litura; experiment: Insecticidal activity against second-instar larval stage of Spodoptera litura fed with artificial diet containing compound assessed as mortality after 7 days; assay type: functional; conditions: 168 h
[9] = system: Spodoptera litura; experiment: Antifeedant activity against third-instar larval stage of Spodoptera litura fed with artificial diet containing compound assessed as efficiency index of ingested food at 8.32 mg/ml after 3 days (reference value: 64.5%); assay type: functional
[10] = system: Spodoptera litura; experiment: Antifeedant activity against third-instar larval stage of Spodoptera litura fed with artificial diet containing compound assessed as relative growth rate at 8.32 mg/ml after 3 days (reference value: 1.37 +/- 0.12 mg/mg/day); assay type: functional
[11] = system: Spodoptera litura; experiment: Antifeedant activity against third-instar larval stage of Spodoptera litura fed with artificial diet containing compound assessed as relative consumption rate at 3.34 mg/ml after 3 days (reference value: 2.13 +/- 0.18 mg/mg/day); assay type: functional
[12] = system: Spodoptera litura; experiment: Antifeedant activity against third-instar larval stage of Spodoptera litura fed with artificial diet containing compound assessed as relative growth rate at 3.34 mg/ml after 3 days (reference value: 1.37 +/- 0.12 mg/mg/day); assay type: functional
[13] = system: Helicoverpa armigera; experiment: Antifeedant activity against third-instar larval stage of Helicoverpa armigera fed with artificial diet containing compound assessed as efficiency index of ingested food at 5.16 mg/ml after 3 days (reference value: 52%); assay type: functional
[14] = system: Helicoverpa armigera; experiment: Insecticidal activity against second-instar larval stage of Helicoverpa armigera assessed as increase in mortality applied as spray at 1 to 10 mg/ml after 72 hr; assay type: functional, organism-based
[15] = system: Helicoverpa armigera; experiment: Antifeedant activity against third-instar larval stage of Helicoverpa armigera fed with artificial diet containing compound assessed as relative growth rate at 5.16 mg/ml after 3 days (reference value: 0.97 +/- 0.13 mg/mg/day); assay type: functional
[16] = system: Spodoptera litura; experiment: Antifeedant activity against third-instar larval stage of Spodoptera litura fed with artificial diet containing compound assessed as efficiency index of ingested food at 3.34 mg/ml after 3 days (reference value: 64.5%); assay type: functional
[17] = system: Helicoverpa armigera; experiment: Antifeedant activity against third-instar larval stage of Helicoverpa armigera fed with artificial diet containing compound assessed as relative consumption rate at 5.16 mg/ml after 3 days (reference value: 1.88 +/- 0.14 mg/mg/day); assay type: functional
[18] = system: Spodoptera litura; experiment: Insecticidal activity against second-instar larval stage of Spodoptera litura assessed as increase in mortality applied as spray at 1 to 10 mg/ml after 72 hr; assay type: functional, organism-based
[19] = system: Spodoptera litura; experiment: Antifeedant activity against third-instar larval stage of Spodoptera litura fed with artificial diet containing compound assessed as relative consumption rate at 5.6 mg/ml after 3 days (reference value: 2.13 +/- 0.18 mg/mg/day); assay type: functional
[20] = system: Helicoverpa armigera; experiment: Antifeedant activity against third-instar larval stage of Helicoverpa armigera fed with artificial diet containing compound assessed as relative growth rate at 7.38 mg/ml after 3 days (reference value: 0.97 +/- 0.13 mg/mg/day); assay type: functional
[21] = system: Spodoptera litura; experiment: Antifeedant activity against third-instar larval stage of Spodoptera litura fed with artificial diet containing compound assessed as relative growth rate at 5.6 mg/ml after 3 days (reference value: 1.37 +/- 0.12 mg/mg/day); assay type: functional
[22] = system: Helicoverpa armigera; experiment: Antifeedant activity against third-instar larval stage of Helicoverpa armigera fed with artificial diet containing compound assessed as relative consumption rate at 7.38 mg/ml after 3 days (reference value: 1.88 +/- 0.14 mg/mg/day); assay type: functional
[23] = system: Helicoverpa armigera; experiment: Antifeedant activity against third-instar larval stage of Helicoverpa armigera fed with artificial diet containing compound assessed as efficiency index of ingested food at 7.38 mg/ml after 3 days (reference value: 52%); assay type: functional
[24] = system: Spodoptera litura; experiment: Antifeedant activity against third-instar larval stage of Spodoptera litura fed with artificial diet containing compound assessed as efficiency index of ingested food at 5.6 mg/ml after 3 days (reference value: 64.5%); assay type: functional

SMILES: CCCCC(=O)OCCCCCOC(=O)CCCC [PENTANE-1,5-DIPENTANOATE]
- Activity [1]: 0.66 mg/mg/day
- Activity [2]: 1.79 mg/mg/day
- ECI [3]: 37.2%
- growth inhibition (GI) [4]: Dose-dependent effect
- EC50 [4]: 5880 µg/mL (≈ 21.6 mM)
- Activity [5]: 2.02 mg/mg/day
- growth inhibition (GI) [6]: Dose-dependent effect
- EC50 [6]: 5010 µg/mL (≈ 18.4 mM)
- LC50 [7]: 2000 µg/mL (≈ 7.34 mM)
- LC50 [8]: 2000 µg/mL (≈ 7.34 mM)
- ECI [9]: 44%
- Activity [10]: 0.94 mg/mg/day

SMILES: CCCCC(=O)OCCOC(=O)CCCC [ETHYLENE GLYCOL DIPENTANOATE]
- Activity [11]: 2.09 mg/mg/day
- Activity [12]: 0.64 mg/mg/day
- growth inhibition (GI) [4]: Dose-dependent effect
- EC50 [4]: 2120 µg/mL (≈ 9.21 mM)
- ECI [13]: 31.9%
- Activity [14]: Active
- Activity [15]: 0.58 mg/mg/day
- growth inhibition (GI) [6]: Dose-dependent effect
- EC50 [6]: 1840 µg/mL (≈ 7.99 mM)
- LC50 [7]: 2000 µg/mL (≈ 8.68 mM)
- ECI [16]: 4%
- LC50 [8]: 2340 µg/mL (≈ 10.2 mM)
- Activity [17]: 1.82 mg/mg/day
- Activity [18]: Active

SMILES: CC(COC(=O)C(C)C)OC(=O)C(C)C (stereo not drawn)
- Activity [19]: 2.12 mg/mg/day
- Activity [20]: 0.58 mg/mg/day
- Activity [21]: 1.09 mg/mg/day
- growth inhibition (GI) [4]: Dose-dependent effect
- EC50 [4]: 7340 µg/mL (≈ 33.9 mM)
- Activity [22]: 1.91 mg/mg/day
- ECI [23]: 30.4%
- growth inhibition (GI) [6]: Dose-dependent effect
- EC50 [6]: 5210 µg/mL (≈ 24.1 mM)
- LC50 [7]: 2000 µg/mL (≈ 9.25 mM)
- ECI [24]: 13%
- LC50 [8]: 2000 µg/mL (≈ 9.25 mM)
